Assay results as given in US7135477B2, “Heterocyclic compounds which inhibit leukocyte adhesion mediated by α4 integrins” (Elan Pharmaceuticals, Inc., priority 2002, dated 2006).

test: Cassette dosing and serum analysis for determination of bioavailability; assay type: in vivo, rat; details: male Sprague Dawley rats, oral cassette of 6 compounds as sodium salts, total dose 10 mg/kg, plasma at 4, 8 and 12 h, linear trapezoidal rule
Experimental: Cassette Dosing and Serum Analysis for Determination of Bioavailability
The cassette included 5 test articles and a standard compound, for a total dose of 10 mg/kg. Each compound/test article was converted to the sodium salt with equimolar 1 N NaOH and dissolved in water at 2 mg/mL. The cassette was prepared by mixing equal volumes of each of the six solutions. The cassette dosing solution was mixed well and then the pH was adjusted to 7.5–9. The dosing solution was prepared the day before the study and stirred overnight at room temperature.
Male Sprague Dawley (SD) rats from Charles River Laboratories, 6–8 weeks old were used in this screen. Rats were quarantined for at least one day and had continuous access to food and water. On the night before the administration of the cassette, the rats were fasted for approximately 16 h.
Four SD rats were assigned in each cassette. A single dose of the dosing solution was administered orally to each rat. The dosing volume (5 mL/kg) and time were recorded and rats were fed 2 h after dosing.
Blood samples were collected via cardiac puncture at the following time points: 4 h, 8 h and 12 h. Immediately prior to blood collection, rats were anesthetized with CO2 gas within 10–20 seconds. After the 12-h samples were collected, the rats were euthanized via CO2 asphyxiation followed by cervical dislocation.
Blood samples were kept in heparinized microtainer tubes under sub-ambient temperature (4° C.) before they were processed. Blood samples were centrifuged (10000 rpm for 5 minutes) and plasma samples were removed and stored in a −20° C. freezer until analyzed for drug levels. Drug levels in the plasma were analyzed using the following protocol for direct plasma precipitation.
The in vivo plasma samples were prepared in a 1.5 mL 96-well plate, by adding, in order, 100 μL of the test plasma, 150 μL of methanol, followed by vortexing for 10–20 seconds. 150 μL of 0.05 ng/μL of an Internal Standard in acetonitrile were added and vortexed for 30 seconds.
The standard curve samples were prepared in a 1.5 mL 96-well plate, by adding, in order, 100 μL of control mouse plasma, followed by 150 μL of methanol and vortexing for 10–20 seconds. 150 μL of 0.05 ng/μL of an Internal Standard in acetonitrile were added and vortexed for 30 seconds. The samples were spiked with 0–200 ng (10 concentrations) of the compound of interest in 50% methanol to obtain a standard curve range of 0.5 ng/mL–2,000 ng/mL. Again, the sample was vortexed for 30 seconds.
The samples were then spun for 20–30 minutes at 3000 rpm in an Eppendorf microfuge before 80–90% of supernatant was transferred into a clean 96-well plate. The organic solvent was then evaporated until the samples were dry (under N2 at 40° C./30–60 min (ZymarkTurbovap)).
The residue was then dissolved in […] mobile phase (50% CH3OH/0.1% TFA). LC/MS/MS was then run using a PE-Sciex API-3000 triple quadurpole mass spectrometer (SN0749707), Perkin-Elmer, Series200auto-sampler, and shimadzu 10A pump. Acquisition was done with PE-Sciex Analyst (v1.1) and data analysis and quantification were accomplished using PE-Sciex Analyst (v1.1). A 5–50 μL sample volume was injected onto a reverse phase ThermoHypersil DASH-18 column (Keystone 2.0×20 mm, 5 μm, PN: 8823025-701) using a mobile phase of 25% CH3OH, 0.1% TFA-100% CH3OH, 0.1% TFA. The run time was about 8 minutes at a flow rate of about 300 μL/minutes.
The Area Under the Curve (AUC) was calculated using the linear trapezoidal rule from t=0 to the last sampling time tx (see Handbook of Basic Pharmacokinetics, Wolfgang A. Ritschel and Gregory L. Kearns, 5th ed, 1999). AUC^0−tx=S((Cn+Cn+1)/2))·(tn+1−tn)[(μg/mL)h]

| Structure (SMILES) | AUC (average AUC 0→12 h) |
| --- | --- |
| CCN(CC)c1ncc(N(CC)S(=O)(=O)c2ccc(Cl)cc2)c(N[C@@H](Cc2ccc(OC(=O)N3CCCC3)cc2)C(=O)O)n1 [Example 1, N-(2-[N′,N′-diethylamino]-5-[N″-(4-chlorophenylsulfonyl)-N″-ethylamino]pyrimidin-4-yl)-4′-(pyrrolidin-1-ylcarbonyloxy)-L-phenylalanine] | 14.798 (μg/mL)h |
| CCN(CC)c1ncc(N(CC)S(=O)(=O)c2ccc(F)cc2)c(N[C@@H](Cc2ccc(OC(=O)N3CCCC3)cc2)C(=O)O)n1 [Example 2, N-(2-[N′,N′-diethylamino]-5-[N″-(4-fluorophenylsulfonyl)-N″-ethylamino]pyrimidin-4-yl)-4′-(pyrrolidin 1-ylcarbonyloxy)-L-phenylalanine] | 15.971 (μg/mL)h |
| CCN(CC)c1ncc(N(C)S(=O)(=O)c2ccc(F)cc2)c(N[C@@H](Cc2ccc(OC(=O)N3CCCC3)cc2)C(=O)O)n1 [Example 3, N-(2-[N′,N′-diethylamino]-5-[N″-(4-fluorophenylsulfonyl)-N″-methylamino]pyrimidin-4-yl)-4′-(pyrrolidin-1-ylcarbonyloxy)-L-phenylalanine] | 22.271 (μg/mL)h |
| CCN(CC)c1ncc(N(C)S(=O)(=O)c2ccc(Cl)cc2)c(N[C@@H](Cc2ccc(OC(=O)N3CCCC3)cc2)C(=O)O)n1 [Example 4] | 13.829 (μg/mL)h |
| CCN(CC)c1ncc(N(C)S(=O)(=O)c2ccc(F)cc2)c(N[C@@H](Cc2ccc(OC(=O)N3CCCCC3)cc2)C(=O)O)n1 [Example 5, N-(2-[N′,N′-diethylamino]-5-[N″-(4-fluorophenylsulfonyl)-N″-methylamino]pyrimidin-4-yl)-4′-(piperidin-1-ylcarbonyloxy)-L-phenylalanine] | 2.1654 (μg/mL)h |
| CCN(CC)c1ncc(N(CC)S(=O)(=O)c2ccc(F)cc2)c(N[C@@H](Cc2ccc(OC(=O)N3CCCCC3)cc2)C(=O)O)n1 [Example 6, N-(2-[N′,N′-diethylamino]-5-[N″-(4-fluorophenylsulfonyl)-N″-ethylamino]pyrimidin-4-yl)-4′-(piperidin-1-ylcarbonyloxy)-L-phenylalanine] | 0.5125 (μg/mL)h |
| CCN(CC)c1ncc(N(CC)S(=O)(=O)c2ccc(F)cc2)c(N[C@@H](Cc2ccc(OC(=O)N3CCC3)cc2)C(=O)O)n1 [Example 7, N-(2-[N′,N′-diethylamino]-5-[N″-(4-fluorophenylsulfonyl)-N″-ethylamino]pyrimidin-4-yl)-4-(azetidin-1-ylcarbonyloxy)-L-phenylalanine] | 0.8979 (μg/mL)h |
| CCN(CC)c1ncc(N(C)S(=O)(=O)c2ccc(F)cc2)c(N[C@@H](Cc2ccc(OC(=O)N3CCC3)cc2)C(=O)O)n1 [Example 8, N-(2-[N′,N′-diethylamino]-5-[N″-(4-fluorophenylsulfonyl)-N″-methylamino]pyrimidin-4-yl)-4′-(azetidin-1-ylcarbonyloxy)-L-phenylalanine] | 2.4082 (μg/mL)h |
| CCN(CC)c1ncc(N(C)S(=O)(=O)c2ccc(Cl)cc2)c(N[C@@H](Cc2ccc(OC(=O)N3CCC3)cc2)C(=O)O)n1 [Example 9, N-(2-[N′,N′-diethylamino]-5-[N″-(4-chlorophenylsulfonyl)-N″-methylamino]pyrimidin-4-yl)-4′-(azetidin-1-ylcarbonyloxy)-L-phenylalanine] | 2.0774 (μg/mL)h |
| CCN(CC)c1ncc(N(CC)S(=O)(=O)c2ccc(Cl)cc2)c(N[C@@H](Cc2ccc(OC(=O)N3CCC3)cc2)C(=O)O)n1 [Example 10, N-(2-[N′,N′-diethylamino]-5-[N″-(4-chlorophenylsulfonyl)-N″-ethylamino]pyrimidin-4-yl)-4′-(azetidin-1-ylcarbonyloxy)-L-phenylalanine] | 2.1113 (μg/mL)h |
| CCN(CC)c1ncc(N(C)S(=O)(=O)c2ccc(F)cc2F)c(N[C@@H](Cc2ccc(OC(=O)N3CCCC3)cc2)C(=O)O)n1 [Example 11, N-(2-[N′,N′-diethylamino]-5-[N″-(2,4-difluorophenylsulfonyl)-N″-methylamino]pyrimidin-4-yl)-4′-(pyrrolidin-1-ylcarbonyloxy)-L-phenylalanine] | 14.818 (μg/mL)h |
| CCN(CC)c1ncc(N(CC)S(=O)(=O)c2ccc(F)cc2F)c(N[C@@H](Cc2ccc(OC(=O)N3CCCC3)cc2)C(=O)O)n1 [Example 12, N-(2-[N′,N′-diethylamino]-5-[N″-(2,4-difluorophenylsulfonyl)-N″-ethylamino]pyrimidin-4-yl)-4′-(pyrrolidin-1-ylcarbonyloxy)-L-phenylalanine] | 4.7816 (μg/mL)h |
| CCN(CC)c1ncc(N(C)S(=O)(=O)c2ccc(F)cc2F)c(N[C@@H](Cc2ccc(OC(=O)N3CCC3)cc2)C(=O)O)n1 [Example 13, N-(2-[N′,N′-diethylamino]-5-[N″-(2,4-difluorophenylsulfonyl)-N″-methylamino]pyrimidin-4-yl)-4′-(azetidin-1-ylcarbonyloxy)-L-phenylalanine] | 1.283 (μg/mL)h |
| CCN(CC)c1ncc(N(CC)S(=O)(=O)c2ccc(F)cc2F)c(N[C@@H](Cc2ccc(OC(=O)N3CCC3)cc2)C(=O)O)n1 [Example 14, N-(2-[N′N′-diethylamino]-5-[N″-(2,4-difluorophenylsulfonyl)-N″ethylamino]pyrimidin-4-yl)-4′-(azetidin-1-ylcarbonyloxy)-L-phenylalanine] | 0.3566 (μg/mL)h |
| C#CCN(c1cnc(N(CC)CC)nc1N[C@@H](Cc1ccc(OC(=O)N2CCCC2)cc1)C(=O)O)S(=O)(=O)c1ccc(F)cc1 [Example 15, N-(2-[N′,N′-diethylamino]-5-[N″-(4-fluorophenylsulfonyl)-N″-propargylamino]pyrimidin4-yl)-4′-(pyrrolidin-1-ylcarbonyloxy)-L-phenylalanine] | 90.317 (μg/mL)h |
| C#CCN(c1cnc(N(CC)CC)nc1N[C@@H](Cc1ccc(OC(=O)N2CCCC2)cc1)C(=O)O)S(=O)(=O)c1ccc(F)cc1F [Example 16, N-(2-[N′,N′-diethylamino]-5-[N″-(2,4-difluorophenylsulfonyl)-N″-propargylamino]pyrimidin-4-yl)-4′-(pyrrolidin-1-ylcarbonyloxy)-L-phenylalanine] | 23.808 (μg/mL)h |
| C#CCN(c1cnc(N(CC)CC)nc1N[C@@H](Cc1ccc(OC(=O)N2CCC2)cc1)C(=O)O)S(=O)(=O)c1ccc(F)cc1F [Example 17, N-(2-[N′,N′-diethylamino]-5-[N″-(2,4-difluorophenylsulfonyl)-N″-propargylamino]pyrimidin-4-yl)-4′-(azetidin-1-ylcarbonyloxy)-L-phenylalanine] | 0.8628 (μg/mL)h |
| C#CCN(c1cnc(N(CC)CC)nc1N[C@@H](Cc1ccc(OC(=O)N2CCC2)cc1)C(=O)O)S(=O)(=O)c1ccc(F)cc1 [Example 18, N-(2-[N′,N′-diethylamino]-5-[N″-(4-fluorophenylsulfonyl)-N″-propargylamino]pyrimidin-4-yl)-4′(azetidin-1-ylcarbonyloxy)-L-phenylalanine] | 4.7528 (μg/mL)h |
